From patent publication US11072617B2, “Bicyclic sulfones and sulfoxides and methods of use thereof” (Genentech, Inc., priority 2017, dated 2021) come the findings set out here.

pKi: −log10 of the molar value.

As usually defined, the pKi is the negative decadic logarithm of the Ki, by convention in mol/L. A low value points to a high Ki.

For the test, the target named is human RIP1 kinase domain (2-375) (Homo sapiens (Human), UniProt Q13546). Put plainly: RIP1 kinase inhibition biochemical assay (Transcreener ADP, fluorescence polarization). The following applies: Ki app from tight-binding Morrison equation; 50 nM enzyme, 50 uM ATP, 2 hours incubation. Here is the method: RIP1 Kinase Inhibition Assays (Biochemical Assay)
human RIP1 kinase domain (2-375), sequence (Q13546 2-375): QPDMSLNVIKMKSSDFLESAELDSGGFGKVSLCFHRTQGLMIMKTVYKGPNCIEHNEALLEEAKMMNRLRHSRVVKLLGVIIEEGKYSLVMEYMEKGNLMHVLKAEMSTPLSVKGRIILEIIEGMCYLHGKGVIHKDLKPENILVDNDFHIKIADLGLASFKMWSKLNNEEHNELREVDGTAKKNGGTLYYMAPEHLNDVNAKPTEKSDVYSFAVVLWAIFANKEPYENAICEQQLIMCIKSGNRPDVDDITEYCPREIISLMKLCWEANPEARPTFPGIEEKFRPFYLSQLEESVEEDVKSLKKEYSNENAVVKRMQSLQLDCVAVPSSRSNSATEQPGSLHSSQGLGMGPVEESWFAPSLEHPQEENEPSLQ
The compounds of the present invention were tested for their capacity to inhibit RIP1K activity as described below.
The ability of the receptor interacting protein kinase (RIPK1) to catalyze the hydrolysis of adenosine-5′-triphosphate (ATP) is monitored using the Transcreener ADP (adenosine-5′-diphosphate) assay (BellBrook Labs). Purified human RIP1 kinase domain (2-375) (50 nM) derived from a baculovirus-infected insect cell expression system is incubated with test compounds for 2 hours in 50 mM Hepes buffer (pH 7.5) containing 30 mM MgCl2, 1 mM dithiothreitol, 50 uM ATP, 0.002% Brij-35, and 0.5% dimethyl sulfoxide (DMSO). Reactions are quenched by the addition of 1× Bell Brooks Stop buffer B (20 mM Hepes (ph7.5), 40 mM ethylenediaminetetraacetic acid and 0.02% Brij-35) containing an additional 12 mM EDTA and 55 ug/mL ADP2 antibody and 4 nM ADP-AlexaFluor® 633 tracer. The tracer bound to the antibody is displaced by the ADP generated during the RIP1K reaction, which causes a decrease in fluorescence polarization that is measured by laser excitation at 633 nm with a FP microplate reader M1000. Fractional activity was plotted against test article concentration. Using Genedata Screener software (Genedata; Basel, Switzerland), the data were fit to the tight-binding apparent inhibition constant (Ki^app) Morrison equation [Williams, J. W. and Morrison, J. F. (1979) The kinetics of reversible tight-binding inhibition. Methods Enzymol 63: 437-67]. The following equation was used to calculate fractional activity and Ki^app:
[formula] where [E]T and [I]T are the total concentrations of active enzyme and test article, respectively.
Exemplary compounds of the present invention are provided in Table 1 along with their physiochemical characterization and in vitro RIP1 kinase inhibitory activity data. “Method” in the first column of each table refers to the synthetic method(s) used to prepare each compound as shown in the Examples above. In certain examples, chiral column retention times (min) are provided for certain stereoisomers. Unless otherwise specified, the stereochemistry shown in each structure represents relative configuration of a single stereoisomer, and absolute configuration (i.e., “R” and/or “S”) is arbitrarily assigned. In some embodiments, where the Method is described to include the separation of stereoisomers, a single stereoisomer of a compound of Table 1 is provided.
In turn, `C[C@H]1C[C@@H]1S(=O)(=O)c1nc2n(n1)[C@H](c1ccccc1)C[C@@H]2F` (mixture of isomers) [Example 162, (5S,7S)-7-fluoro-5-phenyl-2-[rac-(1S,2S)-2-methylcyclopropyl]sulfonyl-6,7-dihydro-5H-pyrrolo[1,2-b][1,2,4]triazole] showed a pKi of 7.85.
Take `O=S(=O)(c1nc2n(n1)[C@H](c1ccccc1)C[C@@H]2F)[C@H]1C[C@@H]1C(F)(F)F` (mixture of isomers) [Example 163, (5S,7S)-7-fluoro-5-phenyl-2-[rac-(1S,2R)-2-(trifluoromethyl)cyclopropyl]sulfonyl-6,7-dihydro-5H-pyrrolo[1,2-b][1,2,4]triazole]: the pKi is 8.15.
With `CCS(=O)(=O)c1nc2n(n1)C(c1ccccc1)CC2` (racemic) [Example 2, 2-ethylsulfonyl-5-phenyl-6,7-dihydro-5H-pyrrolo[1,2-b][1,2,4]triazole] the figure was 6.06.
With `O=S(=O)(c1nc2n(n1)C(c1ccccc1)CC2)C(F)(F)c1ccccc1` (racemic) [Example 4, 2-[difluoro(phenyl)methyl]sulfonyl-5-phenyl-6,7-dihydro-5H-pyrrolo[1,2-b][1,2,4]triazole] the figure was 6.82; with `O=S(=O)(c1nc2n(n1)C(c1ccccc1)CC2)C(F)F` (racemic) [Example 6], 7.00; with `CS(=O)(=O)c1nc2n(n1)C(c1ccccc1)CC2` (racemic) [Example 9], 5.98.
With `[O-][S+](c1nc2n(n1)[C@H](c1ccccc1)C[C@@H]2F)C(F)F` (mixture of isomers) [Example 13, Rac-(5S,7S)-2-((difluoromethyl)sulfinyl)-7-fluoro-5-phenyl-6,7-dihydro-5H-pyrrolo[1,2-b][1,2,4]triazole] the figure was 7.38; with `O=S(=O)(c1nc2n(n1)[C@H](c1ccccc1)C[C@@H]2F)C1CC1(F)F` (mixture of isomers) [Example 118, (5S,7S)-2-((2,2-difluorocyclopropyl)sulfonyl)-7-fluoro-5-phenyl-6,7-dihydro-5H-pyrrolo[1,2-b][1,2,4]triazole], 8.40; with `O=S(=O)(c1nc2n(n1)C(c1cc(F)cc(F)c1)CC2)C(F)F` (racemic) [Example 175, 2-(Difluoromethylsulfonyl)-5-(3,5-difluorophenyl)-6,7-dihydro-5H-pyrrolo[1,2-b][1,2,4]triazole], 6.66.
In turn, `O=S(=O)(c1nc2n(n1)CCC2c1ccccc1)C(F)F` (racemic) [Example 220, 2-(Difluoromethylsulfonyl)-7-phenyl-6,7-dihydro-5H-pyrrolo[1,2-b][1,2,4]triazole] showed a pKi of 7.00.
Compound `CS(=O)(=O)c1nc2n(n1)[C@H](c1ccccc1F)CC2` (single isomer, unassigned) [Example 7] gave a pKi of 6.60.
With `CCS(=O)(=O)c1nc2n(n1)[C@H](c1ccccc1F)CC2` (single isomer, unassigned) [Example 8] the figure was 6.54; with `O=S(=O)(c1nc2n(n1)[C@@H](c1ccccc1)C[C@H]2F)C1CC1` (single isomer, unassigned) [Example 14], 6.01.
Compound `O=S(=O)(Cc1ccccc1)c1nc2n(n1)[C@H](c1ccccc1)C[C@@H]2F` (single isomer, unassigned) [Example 19] gave a pKi of 7.82.
With `O=S(=O)(c1nc2n(n1)[C@H](c1ccccc1)C[C@@H]2F)C(F)F` (single isomer, unassigned) [Example 23] the figure was 8.30; with `CC(C)(C)S(=O)(=O)c1nc2n(n1)[C@H](c1ccccc1)C[C@@H]2F` (single isomer, unassigned) [Example 25], 7.49; with `O=S(=O)(c1ccccc1)c1nc2n(n1)[C@H](c1ccccc1)C[C@@H]2F` (single isomer, unassigned) [Example 26], 5.49.
With `O=S(=O)(c1nc2n(n1)[C@H](c1ccccc1Cl)C[C@@H]2F)C1CC1` (single isomer, unassigned) [Example 32] the figure was 8.52; with `O=S(=O)(c1nc2n(n1)[C@H](c1ccc(F)cc1)C[C@@H]2F)C1CC1` (single isomer, unassigned) [Example 34], 8.00; with `O=S(=O)(c1nc2n(n1)[C@H](c1c(F)cccc1F)C[C@@H]2F)C1CC1` (single isomer, unassigned) [Example 35], 8.30.
With `O=S(=O)(c1nc2n(n1)[C@@H](c1cccc(F)c1F)C[C@H]2F)C1CC1` (single isomer, unassigned) [Example 36] the figure was 6.06; with `O=S(=O)(c1nc2n(n1)[C@H](c1cc(F)ccc1F)C[C@@H]2F)C1CC1` (single isomer, unassigned) [Example 37], 8.22; with `O=S(=O)(c1nc2n(n1)[C@H](c1c(F)ccc(F)c1F)C[C@@H]2F)C1CC1` (single isomer, unassigned) [Example 38], 8.00.
`O=S(=O)(c1nc2n(n1)[C@H](c1cc(F)cc(F)c1F)C[C@@H]2F)C1CC1` (single isomer, unassigned) [Example 39] had a pKi of 8.22.
With `O=S(=O)(c1nc2n(n1)[C@H](c1cccc(F)c1F)C[C@@H]2F)C1CC1` (single isomer, unassigned) [Example 40] the figure was 8.30; with `O=S(=O)(c1nc2n(n1)[C@H](c1cc(F)cc(F)c1)C[C@@H]2F)C1CC1` (single isomer, unassigned) [Example 42], more than 8.30.
Compound `O=S(=O)(c1nc2n(n1)[C@H](c1ccc(F)c(F)c1)C[C@@H]2F)C1CC1` (single isomer, unassigned) [Example 44] had a pKi of 7.68.
With `O=S(=O)(c1nc2n(n1)[C@H](c1cccc(F)c1Cl)C[C@@H]2F)C1CC1` (single isomer, unassigned) [Example 45] the figure was more than 8.30.
With `O=S(=O)(c1nc2n(n1)[C@H](c1cccc(Cl)c1F)C[C@@H]2F)C1CC1` (single isomer, unassigned) [Example 46] the figure was 7.70.
With `O=S(=O)(c1nc2n(n1)[C@H](c1cc(Cl)ccc1F)C[C@@H]2F)C1CC1` (single isomer, unassigned) [Example 47] the figure was 7.17; with `O=S(=O)(c1nc2n(n1)[C@H](c1cccc(F)c1)C[C@@H]2F)C1CC1` (single isomer, unassigned) [Example 48], more than 8.30; with `O=S(=O)(c1nc2n(n1)[C@H](c1ccccc1)C[C@@H]2F)C1CC(F)(F)C1` (single isomer, unassigned) [Example 50], 7.77.
The compound `[O-][S@@+](c1nc2n(n1)[C@H](c1ccccc1F)C[C@@H]2F)C(F)F` (single isomer, unassigned) [Example 51] gave a pKi of 6.85. This pKi lies 0.92 log units lower than the previous one.
In turn, `[O-][S@+](c1nc2n(n1)[C@H](c1ccccc1F)C[C@@H]2F)C(F)F` (single isomer, unassigned) [Example 52] gave a pKi of 8.52.
With `O=S(=O)(c1nc2n(n1)[C@H](c1ccccc1F)C[C@@H]2F)C(F)F` (single isomer, unassigned) [Example 53] the figure was 7.89; with `O=S(=O)(c1nc2n(n1)[C@H](c1ccc(F)cc1)C[C@@H]2F)C(F)F` (single isomer, unassigned) [Example 56], 7.26.
With `O=S(=O)(c1nc2n(n1)[C@H](c1c(F)cccc1F)C[C@@H]2F)C(F)F` (single isomer, unassigned) [Example 58] the figure was 7.47.
